According to patent US20240174696A1, “2,8-DIAZASPIRO[4.5]DECANE COMPOUNDS” (Genentech, Inc., priority 2021, published 2024):

Columns and labels:
[1] = system: TAZ nuclear translocation in SW1990 cells; assay: TAZ Nuclear Translocation Assay; format: cell-based; details: Homo sapiens, 4 hours
How it was run: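 SW1990 cells in RPMI1640/10% FBS treated with compounds for 4 h at 37 °C, then fixed and immunostained for TAZ with Hoechst nuclear counterstain and imaged by high-content imaging. Read-out is the nuclear/cytoplasmic-ring fluorescence ratio, normalized to DMSO (0%) and an inhibitor control (100%); EC50 from four-parameter fit.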

[2] = molecular target: T1, Human LATS2 catalytic domain (Homo sapiens (Human), UniProt Q9NRM7); assay: LATS2 High ATP HTRF Assay; format: biochemical; details: no asterisk: LATS2 High ATP HTRF Assay, 5000 μM ATP, 0.05 nM LATS2
How it was run: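 Phosphorylation of 0.5 μM STK S1 peptide at high ATP (5000 μM), 2 h at room temperature, by 0.05 nM LATS2 kinase domain/Mob1b complex after 10 min compound pre-incubation. Ki derived from HTRF-based IC50 (4-parameter logistic) by Cheng-Prusoff, ATP Km 105 μM.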

[3] = molecular target: T1, Human LATS2 catalytic domain; assay: Standard LATS2 HTRF Assay; format: biochemical; details: asterisk: Standard LATS2 HTRF Assay, 50 μM ATP, 0.2 nM LATS2
Method: Human LATS2 catalytic domain which contains the amino acids G553-V1088 (accession NP_055387) was purified in-house. The LATS2 catalytic domain was co-purified with Mob1b (accession NP_775739). The LATS2 biochemical HTRF assay was performed using the HTRF KinEASE-STK S1 Kit (Cisbio, Cat #62ST1PEC), following the protocol from the manufacturer. Compounds were dispensed by the Echo Liquid Handler (Labcyte) into a white 384-well plate (PerkinElmer, Cat #6008289). 3 uL of 2×LATS2 enzyme solution was added to the compounds, following by a 10 minute incubation at room temperature. Then, 2×ATP and STK S1 peptide solution was added to initiate the one hour enzyme reaction at room temperature. The final condition of the reaction was 0.2 nM LATS2, 50 μM ATP, 0.5 μM STK S1 peptide in 50 mM HEPES pH7.2, 10 mM MgCl2, 0.1% BGG, 0.005% Brij-35, 1 mM DTT. The reaction was quenched by adding 6 uL of the detection mixture which contained Streptavidin XL665 and STK Antibody-Cryptate (Cisbio), incubate for 1 hour at room temperature. The HTRF (665 nm/620 nm) signal was read on the Envision plater reader (PerkinElmer). The IC50 values were determined by fitting the % inhibition with a nonlinear four-parameter logistical equation. The Ki values were calculated using the Cheng-Prusoff equation for a competitive inhibitor, IC50═Ki (1+S/Km)+M [E] with ATP Km for LATS2=105 μM.

T1 sequence (Q9NRM7 553-1088): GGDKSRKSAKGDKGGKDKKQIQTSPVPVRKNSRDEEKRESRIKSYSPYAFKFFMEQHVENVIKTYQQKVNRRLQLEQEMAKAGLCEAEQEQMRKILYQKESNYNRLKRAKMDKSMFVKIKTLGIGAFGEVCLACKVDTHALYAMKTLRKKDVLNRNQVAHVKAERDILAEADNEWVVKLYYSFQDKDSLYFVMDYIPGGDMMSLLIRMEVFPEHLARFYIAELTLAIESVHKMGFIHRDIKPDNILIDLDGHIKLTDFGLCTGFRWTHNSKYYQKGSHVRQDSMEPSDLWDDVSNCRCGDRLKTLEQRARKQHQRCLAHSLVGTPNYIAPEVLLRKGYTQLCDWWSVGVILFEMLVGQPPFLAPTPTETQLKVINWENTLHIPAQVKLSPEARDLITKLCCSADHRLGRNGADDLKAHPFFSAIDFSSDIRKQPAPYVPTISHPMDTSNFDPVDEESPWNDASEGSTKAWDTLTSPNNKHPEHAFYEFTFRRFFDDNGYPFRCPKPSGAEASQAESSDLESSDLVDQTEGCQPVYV
T1 sequence (Q7L9L4 whole entry partner, the tested form may be a part): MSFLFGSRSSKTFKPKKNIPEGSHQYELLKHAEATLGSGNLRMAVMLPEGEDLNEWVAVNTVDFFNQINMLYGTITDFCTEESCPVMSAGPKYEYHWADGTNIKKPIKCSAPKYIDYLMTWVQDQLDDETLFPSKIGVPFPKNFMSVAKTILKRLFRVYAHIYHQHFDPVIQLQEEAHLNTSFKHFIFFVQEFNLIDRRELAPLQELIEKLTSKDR

SMILES	EC50 [1] [nM]	Ki [2] [nM]	Ki [3] [nM]
O=C1CC2(CCN(c3nc(-c4ccncc4)nc4cnccc34)CC2)CN1 [Compound 164, 8-(2-(pyridin-4-yl)pyrido[3,4-d]pyrimidin-4-yl)-2,8-diazaspiro[4.5]decan-3-one]	> 10000	53.5	9.42
c1cc(-c2nc(N3CCC4(CC3)CCN(C3COC3)C4)c3ccncc3n2)ccn1 [Compound 137, 4-(2-(oxetan-3-yl)-2,8-diazaspiro[4.5]decan-8-yl)-2-(pyridin-4-yl)pyrido[3,4-d]pyrimidine]	1700		2.17
Cc1cc2c(N3CCC4(CCNC4)CC3)nc(-c3ccncc3)nc2cn1 [Compound 158, 6-methyl-2-(pyridin-4-yl)-4-(2,8-diazaspiro[4.5]decan-8-yl)pyrido[3,4-d]pyrimidine]	3100		1.29

The remaining lines, values ahead:

EC50 [1] [nM]	Ki [2] [nM]	Ki [3] [nM]	SMILES
6500	5.35	3.93	O=C1NCCC12CCN(c1nc(-c3ccncc3)nc3cnccc13)CC2 [Compound 165, 8-(2-(pyridin-4-yl)pyrido[3,4-d]pyrimidin-4-yl)-2,8-diazaspiro[4.5]decan-1-one]
990		1.02	c1cc(-c2nc(N3CCC4(CC3)CCN(C3CCOCC3)C4)c3ccncc3n2)ccn1 [Compound 122, 2-(pyridin-4-yl)-4-(2-(tetrahydro-2H-pyran-4-yl)-2,8-diazaspiro[4.5]decan-8-yl)pyrido[3,4-d]pyrimidine]
> 10000		1.02	N#CC1CC(N2CCC3(CCN(c4nc(-c5ccncc5)nc5cnccc45)CC3)C2)C1 (centres unmarked) [Compound 118, 3-(8-(2-(pyridin-4-yl)pyrido[3,4-d]pyrimidin-4-yl)-2,8-diazaspiro[4.5]decan-2-yl)cyclobutanecarbonitrile]
